Data published in PMC6397271 (Scientific Reports, 2019).
Values after ≈ are worked out from the molar mass of the structure shown.

Legend:
S. aureus MRSA 12673 = assay: microbe, parasite or virus in culture; type: cell-based, Staphylococcus aureus; conditions: microbroth dilution, 96-well, resazurin, 37 °C, 24 h; mean ± SD, at least three independent experiments in triplicates
Text: (§1) Three bacterial strains of MRSA (N315, 12673, 6347) and two of Enterococcus spp. (E. faecium, E. faecalis) were used. With respect to MRSA, N315 represented a reference Van-susceptible strain (GenBank GCA_00000645.1) isolated from a patient while 12673 (Van-intermediately susceptible) and 6347 (a h-VISA which appears at frequency of <10^−5 to 10^−6 is composed of two subpopulations of bacteria: one susceptible and one intermediately resistant)[38] were clinical strains obtained from patients of The Clinical University Centre of Gdańsk (UCK). […] The clinical strain isolates originated from the collection of the Department of Pharmaceutical Technology and Biochemistry, Faculty of Chemistry, Gdańsk University of Technology.
(§2) The strains were grown in Mueller-Hinton broth (MH cation-adjusted, Becton Dickinson) or Brain Heart Infusion broth (BHI, Becton Dickinson), respectively. The cultivation was carried out in an aerobic atmosphere at 37 °C for 24 hours and, afterwards, the bacterial cultures were diluted in geometric progression with a proper broth. Next, 100 µl of each dilution was inoculated in an agar plate and incubated at 37 °C for 24 h. The next procedures included determination of Colony Forming Units (CFU)/ml and minimal inhibitory concentration (MIC) of the compounds in question. The latter procedure was carried out according to the microbroth dilution technique using 96-well plates. The MICs were evaluated by using the metabolic assay based on the resazurin dye. The assay was performed in triplicates.

S. aureus MRSA N315 = assay: microbe, parasite or virus in culture; type: cell-based, Staphylococcus aureus; conditions: microbroth dilution, 96-well, resazurin, 37 °C, 24 h; mean ± SD, at least three independent experiments in triplicates
Text: as §1, §2

[1] = test system: S. aureus MRSA hetero-VISA 6347; assay: microbe, parasite or virus in culture; type: cell-based, Staphylococcus aureus; conditions: microbroth dilution, 96-well, resazurin, 37 °C, 24 h; mean ± SD, at least three independent experiments in triplicates
Text: as §1, §2

[2] = test system: Enterococcus faecalis 3937158; assay: microbe, parasite or virus in culture; type: cell-based; conditions: microbroth dilution, 96-well, resazurin, 37 °C, 24 h; mean ± SD, at least three independent experiments in triplicates
Text: as §1, §2

[3] = test system: Enterococcus faecium 3934825; assay: microbe, parasite or virus in culture; type: cell-based; conditions: microbroth dilution, 96-well, resazurin, 37 °C, 24 h; mean ± SD, at least three independent experiments in triplicates
Text: as §1, §2

S.aureus MRSA 12673 = assay: microbe, parasite or virus in culture; type: cell-based, Staphylococcus aureus; conditions: TP10 alone
Procedure: (§3) To find out MICA(with B) and MICB(with A) a checkerboard assay was carried out in 96-well microtiter plates (each test was performed in triplicates). […] Each well in a 96-well plate was inoculated with 100 µL of bacterial inoculum of 1 × 10^5 CFU/mL. For this purpose only bacterial strains of MRSA (N315, 12673 and 6347) were used. Next, the plates were incubated at 37 °C for 24 h.
(§4) FIC index (FICI) is the sum of FICA and FICB. The interpretation of the calculated FICIs is in accordance to the following principle: FICI ≤ 0.5 synergy; FICI > 0.5 and ≤4 indifference (no interaction); FICI > 4, antagonism.

S.aureus MRSA N315 = assay: microbe, parasite or virus in culture; type: cell-based, Staphylococcus aureus; conditions: TP10 alone
Procedure: as §3, §4

[4] = test system: S.aureus MRSA hetero-VISA 6347; assay: microbe, parasite or virus in culture; type: cell-based, Staphylococcus aureus; conditions: TP10 alone
Procedure: as §3, §4

[5] = test system: intracellular MRSA 12673 strain in HEK293 cells; assay: Intracellular antimicrobial (infection) assay; type: cell-based, Staphylococcus aureus; conditions: MRSA-infected HEK293 cells, 25 µM, 24 h
Procedure: HEK293 (human embryonic kidney) cells were purchased form Cell Line Services (Germany). The cells were cultured in Dulbecco’s Modified Eagle’s (DMEM) medium with 4.5 g/l glucose (Sigma-Aldrich, Germany), supplemented with 10% fetal bovine serum (FBS, Sigma-Aldrich, Germany) and 1% PEN/STREP (Sigma-Aldrich, Germany). Cells were maintained in a 5% CO2 incubator at 37 °C. The original lines were checked for the presence of mycoplasma.
HEK293 cells were seeded at a density of 1.5 × 10^5 cells/well in 24-well plates in an antibiotic-free medium (DMEM + 10% FBS) and were allowed to adhere overnight. Next, the medium was removed and overnight culture of S. aureus strain (12673) suspended in DMEM + 1% FBS (invasive medium) at a ratio of bacteria/cells 25:1 was added. To enable bacterial invasion, the cells were incubated with bacterial suspensions (37 °C, 5% CO2) for 2 h.
After this period of time extracellular bacteria were eliminated by a 30 min incubation with 20 U/ml lysostaphin. […] The lysis of human cells was carried out with 0.2% Trition-X-100 (Sigma-Aldrich, Germany). The obtained cell lysates were serially diluted in PBS and plated on agar plates and CFU/ml was determined.
The results are presented as the percentage of S. aureus intracellular survival after treatment in comparison to that of non-treated cells (control). The assay was performed in triplicates.

[6] = Brain concentration by LC/MS after iv administration; type: in vivo, BALB/c male mice; conditions: iv, 2 h, LC/MS of brain homogenate
Procedure: In vivo experiments were performed on BALB/c male mice weighing between 20 and 30 g (the mouse model is widely used for estimation of drug BBB penetration). The animals (obtained from TAZD-CBU) were kept in a 12-hour day and night cycle at room temperature (20–22 °C), humidity 55–56% and fed with a standard diet and water ad libitum for at least 1 week before the experiment. Body temperature and weight were recorded on a regular daily schedule. It is confirmed that all procedures were carried out according to the guidelines outlined by the European Community Council Directive 2010/63/EEC, and they were approved by the local Ethical Committee Resolution 26/2014 (Bydgoszcz, Poland).
The experiments in this section also involved the mouse model described above. […] Similarly to what was stated previously, the mice were sacrificed 2 hours after the administration of the compounds. Their brains were removed immediately from the cranium and weighed. Next, they were homogenized mechanically in the ice and frozen at −80 °C.
Each homogenized mouse brain was centrifuged at 15 000 × g for 10 min. The supernatant was diluted with deionised water (Millipore), filtered (PTFE 0.22 μm filter) and analyzed by UHPLC-ESI/MS with the use of Shimadzu Nexera X2 UHPCL chromatograph and Shimadzu LCMS-2020 mass detector. […]

## CC[C@H](C)[C@H](NC(=O)[C@H](CCCCN)NC(=O)[C@H](CCCCN)NC(=O)[C@H](C)NC(=O)[C@H](CC(C)C)NC(=O)[C@H](C)NC(=O)[C@H](C)NC(=O)[C@H](CC(C)C)NC(=O)[C@H](C)NC(=O)[C@H](CCCCN)NC(=O)[C@H](CC(C)C)NC(=O)[C@H](CC(N)=O)NC(=O)[C@@H](NC(=O)[C@H](CCCCN)NC(=O)CNC(=O)[C@H](CC(C)C)NC(=O)[C@H](CC(C)C)NC(=O)[C@H](Cc1ccc(O)cc1)NC(=O)CNC(=O)[C@H](C)N)[C@@H](C)CC)C(=O)N[C@@H](CC(C)C)C(N)=O [TP10, transportan 10, reference compound]
S. aureus MRSA 12673
  MIC: 6.3 ± 1.6 µM (≈ 13.7 µg/mL)
S. aureus MRSA N315
  MIC: 6.3 ± 1.3 µM (≈ 13.7 µg/mL)
[1]
  MIC: 12.5 ± 3.2 µM (≈ 27.3 µg/mL)
[2]
  MIC: 12.5 ± 2.2 µM (≈ 27.3 µg/mL)
[3]
  MIC: 12.5 ± 3.4 µM (≈ 27.3 µg/mL)
S.aureus MRSA 12673
  MIC TP10 (B), MICB: 6.3 µM
S.aureus MRSA N315
  MIC TP10 (B), MICB: 6.3 µM
[4]
  MIC TP10 (B), MICB: 12.5 µM
[5]
  intracellular MRSA killed (bacterial killing rate): 26%
[6]
  access to the brain / BBB penetration (in words): did not gain access to the brain
